Format in all cases: biochemical
The target in one assay is T1, mICE (Mus musculus, UniProt P29452).
T1 sequence (P29452 123-296 limits assumed): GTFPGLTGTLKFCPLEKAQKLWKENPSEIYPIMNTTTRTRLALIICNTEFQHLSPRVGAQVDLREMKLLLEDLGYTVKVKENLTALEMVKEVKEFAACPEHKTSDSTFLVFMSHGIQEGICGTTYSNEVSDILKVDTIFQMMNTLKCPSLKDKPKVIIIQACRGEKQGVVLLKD
T1 sequence (P29452 315-402 limits assumed): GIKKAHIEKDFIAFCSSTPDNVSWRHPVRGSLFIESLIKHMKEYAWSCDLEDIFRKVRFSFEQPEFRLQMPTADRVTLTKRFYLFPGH
As to the kind of experiment: Fluorescence enzyme assay, determination of IC50 values (ICE). Particulars: recombinant enzyme, 30 min preincubation, substrate Acetyl-Tyr-Val-Ala-Asp-AMC, room temperature. On the procedure:
(§1) Fluorescence enzyme assays detecting the activity of the compounds of Formula I utilizing the recombinant ICE and CPP32 enzymes are performed essentially according to Thornberry et al. (Nature, 356:768:774 (1992)) and Nicholson et al. (Nature, 376:37–43 (1995)) respectively, (herein incorporated by reference) in 96 well microtiter plates. The substrate is Acetyl-Tyr-Val-Ala-Asp-amino-4-methylcoumarin (AMC) for the ICE assay and Acetyl-Asp-Glu-Val-Asp-amino-4-methylcoumarin for the CPP32, Mch2, Mch3 and Mch5 assays. Enzyme reactions are run in ICE buffer (25 mM HEPES, 1 mM EDTA, 0.1% CHAPS, 10% sucrose, pH 7.5) containing 2 mM DTT at room temperature in duplicate.
(§2) The enzyme and the compound of Formula I to be assayed are allowed to preincubate in the microtitre plate wells for 30 minutes at room temperature prior to the addition of substrate to initiate the reaction. Fluorescent AMC product formation is monitored for one hour at room temperature by measuring the fluorescence emission at 460 nm using an excitation wavelength of 360 nm.
(§3) The reference compound for this assay was Cbz-ValAlaAsp-H and the values are denoted in Table 1 as “Reference”.

The next assay concerns the target T2, CPP32 (Homo sapiens, UniProt P42574).
T2 sequence (P42574 29-175 limits assumed): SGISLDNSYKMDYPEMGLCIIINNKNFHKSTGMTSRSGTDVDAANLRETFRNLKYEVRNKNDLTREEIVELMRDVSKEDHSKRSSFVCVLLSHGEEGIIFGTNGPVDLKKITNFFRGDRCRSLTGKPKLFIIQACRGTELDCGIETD
T2 sequence (P42574 176-277 limits assumed): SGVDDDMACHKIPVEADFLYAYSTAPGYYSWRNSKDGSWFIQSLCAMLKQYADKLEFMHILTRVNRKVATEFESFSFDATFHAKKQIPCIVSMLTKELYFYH
The experiment in a line: Fluorescence enzyme assay, determination of IC50 values (CPP32). To be noted: recombinant enzyme, 30 min preincubation, substrate Acetyl-Asp-Glu-Val-Asp-AMC, room temperature. The procedure: as §1, §2, §3

The target of a further assay is T3, MCH-2 (Homo sapiens, UniProt P55212).
T3 sequence (P55212 24-179 limits assumed): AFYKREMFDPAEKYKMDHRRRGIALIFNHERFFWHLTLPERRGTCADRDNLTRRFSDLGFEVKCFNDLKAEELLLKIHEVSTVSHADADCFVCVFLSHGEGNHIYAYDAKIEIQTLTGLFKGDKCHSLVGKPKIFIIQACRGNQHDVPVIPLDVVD
T3 sequence (P55212 194-293 limits assumed): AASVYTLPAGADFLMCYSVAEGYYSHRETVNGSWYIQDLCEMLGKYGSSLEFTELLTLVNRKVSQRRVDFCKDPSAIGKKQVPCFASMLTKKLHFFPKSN
The experiment in a line: Fluorescence enzyme assay, determination of IC50 values (Mch2). Particulars: 30 min preincubation, substrate Acetyl-Asp-Glu-Val-Asp-AMC, room temperature. On the procedure:
as §1, §2, §3

The target of the next assay is T4, MCH-3 (Homo sapiens, UniProt P55210).
T4 sequence (P55210 24-198 limits assumed): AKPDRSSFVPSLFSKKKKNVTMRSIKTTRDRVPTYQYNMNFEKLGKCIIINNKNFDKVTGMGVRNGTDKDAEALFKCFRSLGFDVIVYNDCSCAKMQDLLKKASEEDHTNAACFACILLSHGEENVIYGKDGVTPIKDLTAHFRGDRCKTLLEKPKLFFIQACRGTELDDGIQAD
T4 sequence (P55210 207-303 limits assumed): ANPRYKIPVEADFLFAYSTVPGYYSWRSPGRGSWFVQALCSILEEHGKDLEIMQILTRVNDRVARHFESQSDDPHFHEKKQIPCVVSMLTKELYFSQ
The experiment in a line: Fluorescence enzyme assay, determination of IC50 values (Mch3). To be noted: 30 min preincubation, substrate Acetyl-Asp-Glu-Val-Asp-AMC, room temperature. The procedure: as §1, §2, §3

The target in another assay is MCH-5 (Homo sapiens, UniProt Q14790). As to the kind of experiment: Fluorescence enzyme assay, determination of IC50 values (Mch5). To be noted: 30 min preincubation, substrate Acetyl-Asp-Glu-Val-Asp-AMC, room temperature. The procedure: The substrate is Acetyl-Tyr-Val-Ala-Asp-amino-4-methylcoumarin (AMC) for the ICE assay and Acetyl-Asp-Glu-Val-Asp-amino-4-methylcoumarin for the CPP32, Mch2, Mch3 and Mch5 assays. Enzyme reactions are run in ICE buffer (25 mM HEPES, 1 mM EDTA, 0.1% CHAPS, 10% sucrose, pH 7.5) containing 2 mM DTT at room temperature in duplicate.
Chain of MCH-5 (Q14790 217-374 limits assumed, species assumed): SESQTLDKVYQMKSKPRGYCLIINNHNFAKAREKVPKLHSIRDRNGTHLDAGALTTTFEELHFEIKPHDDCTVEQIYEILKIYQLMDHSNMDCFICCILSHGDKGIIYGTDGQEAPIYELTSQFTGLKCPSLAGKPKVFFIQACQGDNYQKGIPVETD
Chain of MCH-5 (Q14790 385-479 limits assumed, species assumed): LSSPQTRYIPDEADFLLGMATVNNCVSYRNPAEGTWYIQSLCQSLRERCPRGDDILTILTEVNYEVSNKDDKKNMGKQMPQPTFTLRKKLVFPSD
as §2, §3

Where a SMILES comes first, the peptide text is derived from it. The star is where a group is joined. Cbz = O=C(OCc1ccccc1)*

Regarding `CC(C)[C@H](NC(=O)OCc1ccccc1)C(=O)N[C@@H](C)C(=O)N[C@H](C=O)CC(=O)O` [reference, Cbz-ValAlaAsp-H, reference compound] (Cbz-Val-Ala-Asp-aldehyde), the IC50 is 64 nM at mICE; 47000 nM at CPP32; > 10000 nM at MCH-2; > 10000 nM at MCH-3; 2960 nM on MCH-5.
As to `CC(C)C[C@H](NC(=O)C(=O)Nc1cccc2ccccc12)C(=O)N[C@H](C=O)CC(=O)O` [Example 1, (3S)-3-[N-(N′-(1-NAPHTHYL)OXAMYL)LEUCINYL]AMINO-4-OXOBUTANOIC ACID], the half-maximal inhibitory concentration (IC50) on mICE was found to be 27 nM; on CPP32 it was 10 nM; against MCH-2 it was 1500 nM; at MCH-3, 267 nM; against MCH-5, 179 nM.

(Values after patent publication US7183260B2, “C-terminal modified oxamyl dipeptides as inhibitors of the ICE/ced-3 family of cysteine proteases” (Idun Pharmaceuticals, Inc., priority 1998, dated 2007).)
